{"source": "patent US6906108B2", "about": "“Extracts of vetiver oil as repellent and toxicant to ants, ticks, and cockroaches” (Board of Supervisors of Louisiana State University and …, priority 2001, dated 2005)", "key": {"[1]": {"system": "cat fleas (Ctenocephalides felis (Bouche))", "assay": "Cat flea Petri dish filter paper bioassay (repellency and mortality)", "assay_type": "in vivo", "method": "To test the effectiveness of nootkatone against fleas, cat fleas (Ctenocephalides felis (Bouche)) were collected from a flea colony at St. Gabriel, La.\nPetri dishes (5 cm diameter and 1 cm height) were prepared by lining one half of the top and the bottom with a half circle of filter paper (55 mm), and lining the other half with a second half circle of filter paper. For the treated Petri dishes, 50 mg nootkatone or 100 mg REPEL® were dissolved in 0.5 ml ethanol. […] Ten replicate Petri dishes were used for each of the treatments. The ethanol solution was added to the filter paper on the top and bottom and dried for 10 min. To place the fleas in the Petri dishes, fleas were temporarily immobilized by placing them at −20° C. for 5 min. The number of fleas in each Petri dish varied: for the 10 control Petri dishes, the average number in each dish was 10.2, with a range of 4 to 23; for 0.2 mg nootkatone, the average number in each dish was 8.5, with a range of 5 to 18; for 1 mg nootkatone, the average number in each dish was 10.6, with a range of 6 to 21; for 2 mg nootkatone, the average number in each dish was 11.1, with a range of 9 to 15 (Fleas could be counted in only 9 Petri dishes; one had too many fleas to count); and for 2.76 mg Deet, the average number in each dish was 6.7, with a range of 5 to 9.\nThe number of fleas on each side of each Petri dish was counted at 1 hr, 2 hr, 3 hr, 4 hr, 24 hr, 48 hr, 72 hr, and 96 hr."}, "[2]": {"system": "ticks (Ixodes scapularis)", "assay": "Tick Petri dish bioassay with treated sand (repellency and toxicity)", "assay_type": "in vivo", "method": "To test the effectiveness of nootkatone against ticks, ticks (Ixodes scapularis) were collected from Idlewild, La. Nootkatone efficiacy was tested relative to a known repellent, N,N-diethyl-m-toluamide (“Deet”). REPEL®, which contains 27.55% Deet, was purchased locally from a retail garden store.\nThe bioassay was conducted using Petri dishes (5 cm diameter and 1 cm height). To ensure adequate moisture for the ticks, 1 ml of a hot agar solution (1.5% in H2O) was spread evenly on the inside surfaces of the Petri dish, including the top, bottom, and edges. After the agar cooled, sand that was treated as described below was spread evenly on the inside surfaces of the Petri dish. The sand was held in place by the agar.\nFor the treated sand, either 2 mg nootkatone or 100 mg REPEL® was initially dissolved in 2 ml ethanol, and then 200 μl of the solution was mixed with 2 g sand that had been autoclaved and cooled. The control was autoclaved sand with 200 μl ethanol only added. One half of the surfaces in the Petri dishes were covered with 2 g treated sand, and the other half with 2 g untreated sand. In the nootkatone-treated Petri dishes, the final concentration was 200 μg/dish; while in the Deet treated Petri dishes, the final concentration was 2.75 mg/dish. Control Petri dishes were prepared by covering all sides with untreated sand. One tick was added to each Petri dish, and the top replaced. The number of replicates were as follows: control, 6; nootkatone, 9; and Deet, 8. […] Repellent activity was noted if the tick was found on the untreated side of the Petri dish. The ticks in the control Petri dishes were randomly distributed on the left and right sides.\nThe above experiment was repeated with ticks (Ix. scapularis) collected from Hammond, La. The number of replicates in this experiment were as follows: controls, 8; nootkatone, 10; and Deet, 8."}, "[3]": {"details": "200 μg/dish vs 2.75 mg/dish Deet"}, "[4]": {"details": "200 μg/dish, 10 replicates, ticks from Hammond"}, "[5]": {"details": "200 μg/dish, ticks from Hammond"}}}
{"smiles": "C=C(C)C1CCC2=CC(=O)CC(C)C2(C)C1", "note": "(stereo not drawn) [nootkatone, 4,4a,5,6,7,8-hexahydro-6-isopropenyl-4,4a-dimethyl-2(3H)-naphthalone]", "values": [{"measurement": "Percent Flea Mortality", "setting": "[1]; 0.2 mg per dish, 1 hr", "value": 0, "unit": "%"}, {"measurement": "Percent Flea Mortality", "setting": "[1]; 0.2 mg per dish, 2 hr", "value": 0, "unit": "%"}, {"measurement": "Percent Flea Mortality", "setting": "[1]; 0.2 mg per dish, 3 hr", "value": 0, "unit": "%"}, {"measurement": "Percent Flea Mortality", "setting": "[1]; 0.2 mg per dish, 4 hr", "value": 0, "unit": "%"}, {"measurement": "Percent Flea Mortality", "setting": "[1]; 0.2 mg per dish, 24 hr", "value": 22, "unit": "%"}, {"measurement": "Percent Flea Mortality", "setting": "[1]; 0.2 mg per dish, 48 hr", "value": 45, "unit": "%"}, {"measurement": "Percent Flea Mortality", "setting": "[1]; 0.2 mg per dish, 72 hr", "value": 72, "unit": "%"}, {"measurement": "Percent Flea Mortality", "setting": "[1]; 0.2 mg per dish, 96 hr", "value": 79, "unit": "%"}, {"measurement": "Repellent activity against fleas", "setting": "[1]; 0.2 mg, 1 mg and 2 mg per dish", "value": "no repellent activity"}, {"measurement": "Toxicant activity against fleas", "setting": "[1]; 0.2 mg, 1 mg and 2 mg per dish", "value": "only delayed toxicant activity"}, {"measurement": "Percent Flea Mortality", "setting": "[1]; 1 mg per dish, 1 hr", "value": 0, "unit": "%"}, {"measurement": "Percent Flea Mortality", "setting": "[1]; 1 mg per dish, 2 hr", "value": 0, "unit": "%"}, {"measurement": "Percent Flea Mortality", "setting": "[1]; 1 mg per dish, 3 hr", "value": 16, "unit": "%"}, {"measurement": "Percent Flea Mortality", "setting": "[1]; 1 mg per dish, 4 hr", "value": 38, "unit": "%"}, {"measurement": "Percent Flea Mortality", "setting": "[1]; 1 mg per dish, 24 hr", "value": 66, "unit": "%"}, {"measurement": "Percent Flea Mortality", "setting": "[1]; 1 mg per dish, 48 hr", "value": 92, "unit": "%"}, {"measurement": "Percent Flea Mortality", "setting": "[1]; 1 mg per dish, 72 hr", "value": 89, "unit": "%"}, {"measurement": "Percent Flea Mortality", "setting": "[1]; 1 mg per dish, 96 hr", "value": 98, "unit": "%"}, {"measurement": "Percent Flea Mortality", "setting": "[1]; 2 mg per dish, 1 hr", "value": 0, "unit": "%"}, {"measurement": "Percent Flea Mortality", "setting": "[1]; 2 mg per dish, 2 hr", "value": 0, "unit": "%"}, {"measurement": "Percent Flea Mortality", "setting": "[1]; 2 mg per dish, 3 hr", "value": 26, "unit": "%"}, {"measurement": "Percent Flea Mortality", "setting": "[1]; 2 mg per dish, 4 hr", "value": 50, "unit": "%"}, {"measurement": "Percent Flea Mortality", "setting": "[1]; 2 mg per dish, 24 hr", "value": 77, "unit": "%"}, {"measurement": "Percent Flea Mortality", "setting": "[1]; 2 mg per dish, 48 hr", "value": 84, "unit": "%"}, {"measurement": "Percent Flea Mortality", "setting": "[1]; 2 mg per dish, 72 hr", "value": 91, "unit": "%"}, {"measurement": "Percent Flea Mortality", "setting": "[1]; 2 mg per dish, 96 hr", "value": 94, "unit": "%"}, {"measurement": "Overall activity against ticks", "setting": "[2]; 200 μg/dish", "value": "effective repellent and toxicant"}, {"measurement": "Duration of repellent activity compared with Deet", "setting": "[2]; [3]", "value": "longer than Deet"}, {"measurement": "Toxicant strength compared with Deet", "setting": "[2]; [3]", "value": "stronger toxicant than Deet"}, {"measurement": "Ticks dead after 90 hr (number)", "setting": "[2]; 200 μg/dish, 9 replicates, one tick per dish, ticks from Idlewild", "value": "four"}, {"measurement": "Ticks dead at 24 hr (number)", "setting": "[2]; [4]", "value": "one"}, {"measurement": "Ticks dead at 72 hr (number)", "setting": "[2]; [4]", "value": "four"}, {"measurement": "Ticks dead at 96 hr (number)", "setting": "[2]; [4]", "value": "nine"}, {"measurement": "Ticks dead at 72 hr (percent)", "setting": "[2]; [5]", "value": 40, "unit": "%"}, {"measurement": "Ticks dead at 96 hr (percent)", "setting": "[2]; [5]", "value": 90, "unit": "%"}, {"measurement": "Ticks dead after 90 hr (percent)", "setting": "[2]; 200 μg/dish, ticks from Idlewild", "value": 50, "unit": "%"}]}
